In US20100184596A1, “METHOD FOR THE CONTROL OF WEEDS IN TURF” (SYNGENTA CROP PROTECTION, INC., priority 2007, published 2010):

Columns and labels:
Assay type in all cases: in vivo
[1] = system: Bermudagrass v. Tifway 419; experiment: Phytotoxicity in combination with safeners, post emergence spray (Table B4.3); conditions: no safener, 100 g ai/ha
Method: The phytotoxicity to turfgrass of the compound of formula I in combination with various safeners was tested. The combinations were applied by post emergence spray application. Percentage phytotoxicity assessments were taken at various timepoints. The safeners tested in these trials were cloquintocet-mexyl, cyprosulfamide, a compound of formula 2.3, and isoxadifen-ethyl.

Bermudagrass = experiment: Phytotoxicity via post emergence spray application (Table B2.5)
Method: The phytotoxicity of the compound of formula I to turfgrass species was tested. The compound was applied via post emergence spray to a range of warm and cool season turfgrass species at various rates and spray treatment treatment regimes. Percentage phytotoxicity assessments were taken at various timepoints.

Paspalum sp. = experiment: Weed control via post emergence spray, in common centipedegrass (Table B5.1)
Method: The weed control efficacy of the compound of formula I was tested. The compound was applied via post emergence spray to a range of weeds, at various rates and spray treatment treatment regimes. Percentage weed control assessments were taken at various timepoints.

COCCOCc1nc(C(F)(F)F)ccc1C(=O)C1=C(O)C2CCC(C2)C1=O (centres unmarked) [Formula I, 4-Hydroxy-3-[2-(2-methoxyethoxymethyl)-6-trifluoromethylpyridine-3-carbonyl]-bicyclo[3.2.1]oct-3-en-2-one]
% phytotoxicity ([1]; 7 DAT): 56.70%
% phytotoxicity ([1]; 11 DAT): 38.30%
% phytotoxicity ([1]; 18 DAT): 9.30%
% phytotoxicity (Bermudagrass; 1 appl, 140 g ai/ha, 7 DAT): 38.75%
% phytotoxicity (Bermudagrass; 1 appl, 140 g ai/ha, 14 DAT): 18.75%
% phytotoxicity (Bermudagrass; 1 appl, 140 g ai/ha, 21 DAT): 15.00%
% phytotoxicity (Bermudagrass; 1 appl, 140 g ai/ha, 32 DAT): 13.75%
% phytotoxicity (Bermudagrass; 1 appl, 140 g ai/ha, 35 DAT): 13.75%
% phytotoxicity (Bermudagrass; 1 appl, 140 g ai/ha, 42 DAT): 7.50%
% phytotoxicity (Bermudagrass; 1 appl, 140 g ai/ha, 49 DAT): 6.25%
% phytotoxicity (Bermudagrass; 1 appl, 280 g ai/ha, 7 DAT): 38.75%
% phytotoxicity (Bermudagrass; 1 appl, 280 g ai/ha, 14 DAT): 28.75%
% phytotoxicity (Bermudagrass; 1 appl, 280 g ai/ha, 21 DAT): 12.50%
% phytotoxicity (Bermudagrass; 1 appl, 280 g ai/ha, 32 DAT): 15.00%
% phytotoxicity (Bermudagrass; 1 appl, 280 g ai/ha, 35 DAT): 15.00%
% phytotoxicity (Bermudagrass; 1 appl, 280 g ai/ha, 42 DAT): 8.75%
% phytotoxicity (Bermudagrass; 1 appl, 280 g ai/ha, 49 DAT): 6.25%
% phytotoxicity (Bermudagrass; 2 appl, 140 g ai/ha, 7 DAT): 30.00%
% phytotoxicity (Bermudagrass; 2 appl, 140 g ai/ha, 14 DAT): 26.25%
% phytotoxicity (Bermudagrass; 2 appl, 140 g ai/ha, 21 DAT): 15.00%
% phytotoxicity (Bermudagrass; 2 appl, 140 g ai/ha, 32 DAT): 68.75%
% phytotoxicity (Bermudagrass; 2 appl, 140 g ai/ha, 35 DAT): 35.00%
% phytotoxicity (Bermudagrass; 2 appl, 140 g ai/ha, 42 DAT): 15.00%
% phytotoxicity (Bermudagrass; 2 appl, 140 g ai/ha, 49 DAT): 28.75%
% phytotoxicity (Bermudagrass; 2 appl, 280 g ai/ha, 7 DAT): 42.50%
% phytotoxicity (Bermudagrass; 2 appl, 280 g ai/ha, 14 DAT): 36.25%
% phytotoxicity (Bermudagrass; 2 appl, 280 g ai/ha, 21 DAT): 18.75%
% phytotoxicity (Bermudagrass; 2 appl, 280 g ai/ha, 32 DAT): 75.00%
% phytotoxicity (Bermudagrass; 2 appl, 280 g ai/ha, 35 DAT): 65.00%
% phytotoxicity (Bermudagrass; 2 appl, 280 g ai/ha, 42 DAT): 26.25%
% phytotoxicity (Bermudagrass; 2 appl, 280 g ai/ha, 49 DAT): 30.00%
% control (Paspalum sp.; 1 appl, 140 g ai/ha, 5 DAT): 16.67%
% control (Paspalum sp.; 1 appl, 140 g ai/ha, 13 DAT): 60.00%
% control (Paspalum sp.; 1 appl, 140 g ai/ha, 21 DAT): 55.00%
% control (Paspalum sp.; 1 appl, 140 g ai/ha, 27 DAT): 46.67%
% control (Paspalum sp.; 1 appl, 140 g ai/ha, 35 DAT): 21.67%
% control (Paspalum sp.; 1 appl, 140 g ai/ha, 42 DAT): 6.67%
% control (Paspalum sp.; 1 appl, 140 g ai/ha, 61 DAT): 13.33%
% control (Paspalum sp.; 1 appl, 280 g ai/ha, 5 DAT): 21.67%
% control (Paspalum sp.; 1 appl, 280 g ai/ha, 13 DAT): 71.67%
% control (Paspalum sp.; 1 appl, 280 g ai/ha, 21 DAT): 70.00%
% control (Paspalum sp.; 1 appl, 280 g ai/ha, 27 DAT): 60.00%
% control (Paspalum sp.; 1 appl, 280 g ai/ha, 35 DAT): 43.33%
% control (Paspalum sp.; 1 appl, 280 g ai/ha, 42 DAT): 20.00%
% control (Paspalum sp.; 1 appl, 280 g ai/ha, 61 DAT): 18.33%
% control (Paspalum sp.; 2 appl, 140 g ai/ha, 5 DAT): 20.00%
% control (Paspalum sp.; 2 appl, 140 g ai/ha, 13 DAT): 61.67%
% control (Paspalum sp.; 2 appl, 140 g ai/ha, 21 DAT): 61.67%
% control (Paspalum sp.; 2 appl, 140 g ai/ha, 27 DAT): 56.67%
% control (Paspalum sp.; 2 appl, 140 g ai/ha, 35 DAT): 83.33%
% control (Paspalum sp.; 2 appl, 140 g ai/ha, 42 DAT): 81.67%
% control (Paspalum sp.; 2 appl, 140 g ai/ha, 61 DAT): 70.00%
% control (Paspalum sp.; 2 appl, 280 g ai/ha, 5 DAT): 20.00%
% control (Paspalum sp.; 2 appl, 280 g ai/ha, 13 DAT): 68.33%
% control (Paspalum sp.; 2 appl, 280 g ai/ha, 21 DAT): 68.33%
% control (Paspalum sp.; 2 appl, 280 g ai/ha, 27 DAT): 58.33%
% control (Paspalum sp.; 2 appl, 280 g ai/ha, 35 DAT): 91.67%
% control (Paspalum sp.; 2 appl, 280 g ai/ha, 42 DAT): 95.00%
% control (Paspalum sp.; 2 appl, 280 g ai/ha, 61 DAT): 81.67%
